{
  "source": "patent US8658668B2",
  "about": "“PI3 kinase/mTOR dual inhibitor” (Eli Lilly and Company, priority 2011, dated 2014)",
  "key": {"[1]": {"test_system": "MEXF 276 human tumor xenograft cells", "assay": "Oncotest tumor clonogenic assay, MEXF 276", "format": "cell-based", "details": "colony formation, Melanoma MEXF 276, amelanotic melanoma, md, read-out: Absolute IC50"}, "[2]": {"test_system": "H1975", "assay": "Cell proliferation assay (CellTiter-Glo), H1975", "format": "cell-based", "details": "Homo sapiens, NCI-H1975, 72 h", "description": "Plate cells in a 96-well plate at 2000 cells/well in 100 μL of cell specific medium (for U87MG use DMEM, 10% FBS, 25 mM 4-(2-hydroxyethyl)-1-piperazineethanesulfonic acid (HEPES), 1.0 mM sodium pyruvate, and 0.1 mM Non Essential Amino Acids (ATCC Cat.#30-2002); for HT1080 use Eagle's MEM, 10% FBS (ATCC Cat.#30-2003); for H1975, A2780, SJSA-1 and 786-O use RPMI 1640, 10% FBS (ATCC Cat.#30-2001); for A204 use McCoy's 5A, 10% FBS (ATCC Cat.#30-2007) except in column 1 use medium only as the blank control. Incubate the plates overnight at 37° C. and 5% CO2. On the next day, prepare compound stocks at 1 mM in DMSO and serially dilute in DMSO in a 96-well round bottom polypropylene plate. Assay compounds at 10 concentrations in duplicate, 4 compounds per plate.\nTransfer 4 μL of the DMSO serial dilutions to a 96 well plate and add 196 μL of culture medium to create a 10× stock for dosing. Gently transfer 11 μL of each dosing stock to the corresponding well of the cell plate resulting in a 0.2% DMSO concentration and a 111 μL final volume. […]\nPrepared the CellTiter-Glo reagent (Promega, Cat: G7571) and add 100 µL to each well after the incubation is complete, homogenize the cells by mixing on an orbital shaker for 2 min and then incubate at RT for 10 min to allow the luminescent signal to stabilize. Record the luminescent raw data with a Wallac Victor V plate reader. […]"}, "[3]": {"test_system": "pT308 AKT", "assay": "In vivo target inhibition in U87MG tumors, pT308 AKT", "details": "Mus musculus, U-87 MG; for inhibition at 0.5 mg/kg: 0.5 mg/kg oral; for inhibition at 1.5 mg/kg: 1.5 mg/kg oral; for inhibition at 3 mg/kg: 3 mg/kg oral; for inhibition at 6 mg/kg: 6 mg/kg oral; for inhibition at 10 mg/kg: 10 mg/kg oral; for inhibition at 12 mg/kg: 12 mg/kg oral", "description": "Implant U87MG human glioblastoma cells (5×10^6) subcutaneously into the flank of athymic nude mice in 0.2 mL of matrigel. Ten days post-implantation, dose mice orally according to a time course, single dose/single time point, or dose response protocol for the determination of TMED50 (threshold minimum effective dose). Flash freeze tumors at harvest and collect blood for the determination of parent compound plasma exposure and the calculation of TMEC50 (threshold minimum effective concentration) in the case of dose response studies. Homogenize tumors in 500 μL of XY Lysis Buffer (10 μg/mL Leupeptin, 10 μg/mL Trypsin-Chymotrypsin Inhibitor, 10 μg/mL Tosyl phenyl-alanyl chloromethyl ketone, 10 μg/mL Aprotinin, 60 mM Beta-Glycerol Phosphate, 1% Triton X100, 25 mM Tris pH 7.5, 2.5 mM Pyrophosphate, 150 mM NaCl, 2 mM p-tosyl-L-arginine methyl ester, 15 mM para-nitrophenyl phosphate, 5 mM benzamidine, 1 mM sodium vanadate, 10 mM sodium fluoride, 50 μg/mL phenyl-methane sulfonyl fluoride, 1 mM 1,4-dithiothreitol (DTT), 15 mM EDTA pH 8.0, 5 mM EGTA pH 8.0, 1 μM Microcystin, 1 μM Okadaic Acid, and 1 Roche Complete protease inhibitor mini-tablet per 10 mL) using RNase Free Pellet Pestle (Kimble-Kontes). Aliquot lysates and either assay immediately or store at −80° C. for later testing. Use the multiplex format of Meso Scale Discovery (Gaithersburg, Md.) ELISA technology and measure in vivo target inhibition of PI3K and mTOR to assess effects on phosphorylation of the threonine 308 site of AKT, a downstream effector of PI3K; phosphorylation on the threonine 389 site of p70 S6K and on the serine 240/244 site of S6RP, downstream effectors of mTORC1; phosphorylation of the serine 473 site of AKT, a downstream effector of mTORC2. Add 20 μg of lysate to carbon electrode containing 96-well plates pre-spotted with the appropriate capture antibodies. Probe the protein of interest using a ruthenium labeled detection antibody. Pass current over the electrode in the presence of read buffer containing the co-reactant TPA, and quantitate and record the light generated by electro-chemiluminescence with the MSD Sector 6000 instrument. Calculate percent inhibitions relative to the vehicle control group and perform ANOVA analysis using the JMP software package for the determination of statistical significance."}},
  "data": [
    {"smiles": "CO[C@@H](C)Cn1c(=O)n(C)c2cnc3ccc(-c4cncc(C(C)(C)O)c4)cc3c21", "note": "[Example 1, 8-[5-(1-Hydroxy-1-methylethyl)pyridin-3-yl]-1-[(2S)-2-methoxypropyl]-3-methyl-1,3-dihydro-2H-imidazo[4,5-c]quinolin-2-one]", "values": [
      {"measurement": "IC50", "setting": "[1]", "result": 157, "unit": "nM"},
      {"measurement": "IC50", "setting": "[2]", "result": 102, "unit": "nM"},
      {"measurement": "inhibition at 0.5 mg/kg", "setting": "[3]; 0.5 hr post dose", "result": 23, "unit": "%"},
      {"measurement": "inhibition at 0.5 mg/kg", "setting": "[3]; 4 hr post dose", "result": 1, "unit": "%"},
      {"measurement": "inhibition at 1.5 mg/kg", "setting": "[3]; 0.5 hr post dose", "result": 28, "unit": "%"},
      {"measurement": "inhibition at 1.5 mg/kg", "setting": "[3]; 4 hr post dose", "result": -8, "unit": "%"},
      {"measurement": "inhibition at 3 mg/kg", "setting": "[3]; 0.25 hr post dose", "result": 28, "unit": "%"},
      {"measurement": "inhibition at 3 mg/kg", "setting": "[3]; 0.5 hr post dose", "result": 43, "unit": "%"},
      {"measurement": "inhibition at 3 mg/kg", "setting": "[3]; 1 hr post dose", "result": 7, "unit": "%"},
      {"measurement": "inhibition at 3 mg/kg", "setting": "[3]; 3 hr post dose", "result": 7, "unit": "%"},
      {"measurement": "inhibition at 3 mg/kg", "setting": "[3]; 4 hr post dose", "result": -2, "unit": "%"},
      {"measurement": "inhibition at 6 mg/kg", "setting": "[3]; 0.25 hr post dose", "result": 47, "unit": "%"},
      {"measurement": "inhibition at 6 mg/kg", "setting": "[3]; 0.5 hr post dose", "result": 61, "unit": "%"},
      {"measurement": "inhibition at 6 mg/kg", "setting": "[3]; 1 hr post dose", "result": 41, "unit": "%"},
      {"measurement": "inhibition at 6 mg/kg", "setting": "[3]; 2 hr post dose", "result": 32, "unit": "%"},
      {"measurement": "inhibition at 6 mg/kg", "setting": "[3]; 4 hr post dose", "result": 1, "unit": "%"},
      {"measurement": "inhibition at 6 mg/kg", "setting": "[3]; 6 hr post dose", "result": -4, "unit": "%"},
      {"measurement": "inhibition at 6 mg/kg", "setting": "[3]; 12 hr post dose", "result": -16, "unit": "%"},
      {"measurement": "inhibition at 10 mg/kg", "setting": "[3]; 0.5 hr post dose", "result": 88, "unit": "%"},
      {"measurement": "inhibition at 10 mg/kg", "setting": "[3]; 1 hr post dose", "result": 71, "unit": "%"},
      {"measurement": "inhibition at 10 mg/kg", "setting": "[3]; 2 hr post dose", "result": 53, "unit": "%"},
      {"measurement": "inhibition at 10 mg/kg", "setting": "[3]; 4 hr post dose", "result": 44, "unit": "%"},
      {"measurement": "inhibition at 10 mg/kg", "setting": "[3]; 8 hr post dose", "result": 13, "unit": "%"},
      {"measurement": "inhibition at 12 mg/kg", "setting": "[3]; 0.5 hr post dose", "result": 79, "unit": "%"},
      {"measurement": "inhibition at 12 mg/kg", "setting": "[3]; 4 hr post dose", "result": 43, "unit": "%"}
    ]}
  ]
}
